Source: US20100041089A1, “IMPROVED METHOD FOR DETECTING CHEMICAL […]” (priority 2006, published 2010)

System: yeast genes (expressed mRNA)
Test: DNA chip measurement of expressed mRNA of yeast genes after culture with a toxic chemical substance
Type: cell-based, Saccharomyces cerevisiae S288C
Conditions: for level of expressed mRNA in the presence of chemical substance / level in the absence of chemical substance: cultured two hours with the chemical substance; for The level of expressed mRNA in the presence of chemical substance/The level of expressed mRNA in the absence of chemical substance: cultured two hours with substance
Outline: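 Fluorescence ratio, treated over untreated, read by chip scanner; ratio of two or more counted significant. Cells: S288C yeast, YPD, 25° C, chemical added at log phase for 2 h at growth-inhibiting, sublethal level. Cy3/Cy5-labeled cDNA from oligo-dT-purified mRNA.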

Cl[C@H]1[C@H](Cl)[C@@H](Cl)[C@@H](Cl)[C@H](Cl)[C@H]1Cl [(7), γ-Hexachlorocyclohexane]
The level of expressed mRNA in the presence of chemical substance/The level of expressed mRNA in the absence of chemical substance, yeast gene YBR036C (gene YBR036C, Metabolism protein genes, DNA chip fluorescence ratio): 1.3
The level of expressed mRNA in the presence of chemical substance/The level of expressed mRNA in the absence of chemical substance, yeast gene YBR298C (gene YBR298C, Metabolism protein genes, DNA chip fluorescence ratio): 1.7
The level of expressed mRNA in the presence of chemical substance/The level of expressed mRNA in the absence of chemical substance, yeast gene YDL067C (gene YDL067C (mitochondria-located protein gene), yeast cultured two hours with chemical substance, DNA chip fluorescence ratio to control): 0.8
The level of expressed mRNA in the presence of chemical substance/The level of expressed mRNA in the absence of chemical substance, yeast gene YDL078C (gene YDL078C, Metabolism protein genes, DNA chip fluorescence ratio): 1.7
The level of expressed mRNA in the presence of chemical substance/The level of expressed mRNA in the absence of chemical substance, yeast gene YDL215C (gene YDL215C, Metabolism protein genes, DNA chip fluorescence ratio): 1.9
The level of expressed mRNA in the presence of chemical substance/The level of expressed mRNA in the absence of chemical substance, yeast gene YDR079W (gene YDR079W (mitochondria-located protein gene), yeast cultured two hours with chemical substance, DNA chip fluorescence ratio to control): 1.3
The level of expressed mRNA in the presence of chemical substance/The level of expressed mRNA in the absence of chemical substance, yeast gene YDR297W (gene YDR297W, Metabolism protein genes, DNA chip fluorescence ratio): 0.6
The level of expressed mRNA in the presence of chemical substance/The level of expressed mRNA in the absence of chemical substance, yeast gene YDR387C (gene YDR387C, Metabolism protein genes, DNA chip fluorescence ratio): 1.3
The level of expressed mRNA in the presence of chemical substance/The level of expressed mRNA in the absence of chemical substance, yeast gene YGL035C (gene YGL035C, Metabolism protein genes, DNA chip fluorescence ratio): 1.2
The level of expressed mRNA in the presence of chemical substance/The level of expressed mRNA in the absence of chemical substance, yeast gene YGR062C (gene YGR062C (mitochondria-located protein gene), yeast cultured two hours with chemical substance, DNA chip fluorescence ratio to control): 1.3
The level of expressed mRNA in the presence of chemical substance/The level of expressed mRNA in the absence of chemical substance, yeast gene YGR287C (gene YGR287C, Metabolism protein genes, DNA chip fluorescence ratio): 2.2
The level of expressed mRNA in the presence of chemical substance/The level of expressed mRNA in the absence of chemical substance, yeast gene YJL070C (gene YJL070C, Metabolism protein genes, DNA chip fluorescence ratio): 1.4
The level of expressed mRNA in the presence of chemical substance/The level of expressed mRNA in the absence of chemical substance, yeast gene YJL096W (gene YJL096W (mitochondria-located protein gene), yeast cultured two hours with chemical substance, DNA chip fluorescence ratio to control): 1.7
The level of expressed mRNA in the presence of chemical substance/The level of expressed mRNA in the absence of chemical substance, yeast gene YJL180C (gene YJL180C (mitochondria-located protein gene), yeast cultured two hours with chemical substance, DNA chip fluorescence ratio to control): 1.6
The level of expressed mRNA in the presence of chemical substance/The level of expressed mRNA in the absence of chemical substance, yeast gene YKR009C (gene YKR009C, Metabolism protein genes, DNA chip fluorescence ratio): 1.0
The level of expressed mRNA in the presence of chemical substance/The level of expressed mRNA in the absence of chemical substance, yeast gene YLR295C (gene YLR295C (mitochondria-located protein gene), yeast cultured two hours with chemical substance, DNA chip fluorescence ratio to control): 1.1
The level of expressed mRNA in the presence of chemical substance/The level of expressed mRNA in the absence of chemical substance, yeast gene YLR351C (gene YLR351C, Metabolism protein genes, DNA chip fluorescence ratio): 1.4
The level of expressed mRNA in the presence of chemical substance/The level of expressed mRNA in the absence of chemical substance, yeast gene YLR375W (gene YLR375W, Metabolism protein genes, DNA chip fluorescence ratio): 0.9
The level of expressed mRNA in the presence of chemical substance/The level of expressed mRNA in the absence of chemical substance, yeast gene YMR023C (gene YMR023C (mitochondria-located protein gene), yeast cultured two hours with chemical substance, DNA chip fluorescence ratio to control): 1.9
The level of expressed mRNA in the presence of chemical substance/The level of expressed mRNA in the absence of chemical substance, yeast gene YMR267W (gene YMR267W (mitochondria-located protein gene), yeast cultured two hours with chemical substance, DNA chip fluorescence ratio to control): 1.2
The level of expressed mRNA in the presence of chemical substance/The level of expressed mRNA in the absence of chemical substance, yeast gene YMR267W (gene YMR267W, Metabolism protein genes, DNA chip fluorescence ratio): 1.2
The level of expressed mRNA in the presence of chemical substance/The level of expressed mRNA in the absence of chemical substance, yeast gene YMR278W (gene YMR278W, Metabolism protein genes, DNA chip fluorescence ratio): 1.8
The level of expressed mRNA in the presence of chemical substance/The level of expressed mRNA in the absence of chemical substance, yeast gene YMR293C (gene YMR293C, Metabolism protein genes, DNA chip fluorescence ratio): 1.2
The level of expressed mRNA in the presence of chemical substance/The level of expressed mRNA in the absence of chemical substance, yeast gene YNL073W (gene YNL073W (mitochondria-located protein gene), yeast cultured two hours with chemical substance, DNA chip fluorescence ratio to control): 1.1
The level of expressed mRNA in the presence of chemical substance/The level of expressed mRNA in the absence of chemical substance, yeast gene YNR072W (gene YNR072W, Metabolism protein genes, DNA chip fluorescence ratio): 1.5
The level of expressed mRNA in the presence of chemical substance/The level of expressed mRNA in the absence of chemical substance, yeast gene YOL096C (gene YOL096C, Metabolism protein genes, DNA chip fluorescence ratio): 1.7
The level of expressed mRNA in the presence of chemical substance/The level of expressed mRNA in the absence of chemical substance, yeast gene YOR180C (gene YOR180C, Metabolism protein genes, DNA chip fluorescence ratio): 0.8
The level of expressed mRNA in the presence of chemical substance/The level of expressed mRNA in the absence of chemical substance, yeast gene YOR316C (gene YOR316C (mitochondria-located protein gene), yeast cultured two hours with chemical substance, DNA chip fluorescence ratio to control): 1.4
The level of expressed mRNA in the presence of chemical substance/The level of expressed mRNA in the absence of chemical substance, yeast gene YOR363C (gene YOR363C, Metabolism protein genes, DNA chip fluorescence ratio): 0.7
The level of expressed mRNA in the presence of chemical substance/The level of expressed mRNA in the absence of chemical substance, yeast gene YPL040C (gene YPL040C (mitochondria-located protein gene), yeast cultured two hours with chemical substance, DNA chip fluorescence ratio to control): 0.8
The level of expressed mRNA in the presence of chemical substance/The level of expressed mRNA in the absence of chemical substance, yeast gene YPL134C (gene YPL134C (mitochondria-located protein gene), yeast cultured two hours with chemical substance, DNA chip fluorescence ratio to control): 1.2
The level of expressed mRNA in the presence of chemical substance/The level of expressed mRNA in the absence of chemical substance, yeast gene YPR184W (gene YPR184W, Metabolism protein genes, DNA chip fluorescence ratio): 1.3
level of expressed mRNA in the presence of chemical substance / level in the absence of chemical substance (yeast gene YAL018C): 1.0
The level of expressed mRNA in the presence of chemical substance/The level of expressed mRNA in the absence of chemical substance (yeast gene YAL053W): 0.7
level of expressed mRNA in the presence of chemical substance / level in the absence of chemical substance (yeast gene YAR047C): 1.2
level of expressed mRNA in the presence of chemical substance / level in the absence of chemical substance (yeast gene YAR064W): 1.1
level of expressed mRNA in the presence of chemical substance / level in the absence of chemical substance (yeast gene YBL044W): 1.1
The level of expressed mRNA in the presence of chemical substance/The level of expressed mRNA in the absence of chemical substance (yeast gene YBL048W): 1.9
The level of expressed mRNA in the presence of chemical substance/The level of expressed mRNA in the absence of chemical substance (yeast gene YBL107C): 2.1
level of expressed mRNA in the presence of chemical substance / level in the absence of chemical substance (yeast gene YBR012C): 1.5
level of expressed mRNA in the presence of chemical substance / level in the absence of chemical substance (yeast gene YBR066C): 1.3
level of expressed mRNA in the presence of chemical substance / level in the absence of chemical substance (yeast gene YBR124W): 1.1
level of expressed mRNA in the presence of chemical substance / level in the absence of chemical substance (yeast gene YBR162C): 0.3
level of expressed mRNA in the presence of chemical substance / level in the absence of chemical substance (yeast gene YBR287W): 1.1
level of expressed mRNA in the presence of chemical substance / level in the absence of chemical substance (yeast gene YCL056C): 1.6
level of expressed mRNA in the presence of chemical substance / level in the absence of chemical substance (yeast gene YCR007C): 2.0
level of expressed mRNA in the presence of chemical substance / level in the absence of chemical substance (yeast gene YDL046W): 1.2
The level of expressed mRNA in the presence of chemical substance/The level of expressed mRNA in the absence of chemical substance (yeast gene YDL072C): 1.8
The level of expressed mRNA in the presence of chemical substance/The level of expressed mRNA in the absence of chemical substance (yeast gene YDL204W): 3.2
The level of expressed mRNA in the presence of chemical substance/The level of expressed mRNA in the absence of chemical substance (yeast gene YDL222C): 1.0
level of expressed mRNA in the presence of chemical substance / level in the absence of chemical substance (yeast gene YDR090C): 1.5
level of expressed mRNA in the presence of chemical substance / level in the absence of chemical substance (yeast gene YDR128W): 0.8
